Earlier results as cited in PubChem BioAssay AID1259410 (Chemical Carcinogenesis Research Information System (CCRIS), 2018).

Tested on: rodent tumor promotion studies, tumor incidence
Test: CCRIS tumor promotion studies

CC[C@@H](C)[C@H](NC(=O)CN)C(=O)N[C@H](C(=O)N[C@@H](CCC(=O)O)C(=O)N[C@@H](CCC(N)=O)C(=O)N[C@H]1CSSC[C@H]2NC(=O)[C@H]([C@H](C)CC)NC(=O)[C@H](CO)NC(=O)[C@H]([C@H](C)O)NC(=O)[C@H](CSSC[C@H](NC(=O)[C@H](CC(C)C)NC(=O)[C@H](Cc3c[nH]cn3)NC(=O)[C@H](CCC(N)=O)NC(=O)[C@@H](NC(=O)[C@@H](NC(=O)[C@@H](N)Cc3ccccc3)C(C)C)C(N)=O)C(=O)NCC(=O)N[C@@H](CO)C(=O)N[C@@H](Cc3c[nH]cn3)C(=O)N[C@@H](CC(C)C)C(=O)N[C@@H](C(C)C)C(=O)N[C@@H](CCC(=O)O)C(=O)N[C@@H](C)C(=O)N[C@@H](CC(C)C)C(=O)N[C@@H](Cc3ccc(O)cc3)C(=O)N[C@@H](CC(C)C)C(=O)N[C@@H](C(C)C)C(=O)N[C@H](C(=O)NCC(=O)N[C@@H](CCC(=O)O)C(=O)N[C@@H](CCCNC(=N)N)C(=O)NCC(=O)N[C@@H](Cc3ccccc3)C(=O)N[C@@H](Cc3ccccc3)C(=O)N[C@@H](Cc3ccc(O)cc3)C(=O)N[C@H](C(=O)N3CCC[C@H]3C(=O)N[C@@H](CCCCN)C(=O)N[C@H](C(=O)O)[C@H](C)O)[C@H](C)O)CSSC[C@@H](C(=O)N[C@@H](CC(N)=O)C(=O)O)NC(=O)[C@H](Cc3ccc(O)cc3)NC(=O)[C@H](CC(N)=O)NC(=O)[C@H](CCC(=O)O)NC(=O)[C@H](CC(C)C)NC(=O)[C@H](CCC(N)=O)NC(=O)[C@H](Cc3ccc(O)cc3)NC(=O)[C@H](CC(C)C)NC(=O)[C@H](CO)NC2=O)NC1=O)C(C)C
outcome (Carcinogen: 7,12-DIMETHYLBENZ[A]ANTHRACENE, 57-97-6, Doses [Carcinogen]: 20 MG IN 4 ML OLIVE OIL ONCE, Doses [Promoter]: 0, 10 I.U./D BEGINNING 4 WK POST CARCINOGEN DOSE AND CONTINUING FOR DURATION OF STUDY (STUDY DURATION: 6 MO), Route [Carcinogen]: GAVAGE, Route [Promoter]: SUBCUTANEOUS, Species: RAT, Strain/Sex: SWISS/FEMALE): mammary gland: tumor

Cc1c2ccccc2c(C)c2c1ccc1ccccc12
outcome (Carcinogen: Diethylstilbestrol, 56-53-1, Doses [Carcinogen]: 0, 0.1, 1, 10, 100 ug in 0.05 ml sesame oil once at birth, Doses [Carcinogen]: 0, 0.1, 1, 10, 100 ug in 0.05 ml sesame oil once at birth, Doses [Promoter]: 10 mg in 1 ml sesame oil once by gastric intubation at 50 days of age, study duration 175 or 300 days of age, Route [Carcinogen]: Subcutaneous, Route [Promoter]: Oral, Species: Rat, Strain/Sex: Sprague-Dawley/Female (22/control group; 15; 21; 13; 16/experimental group)): mammary carcinomas: 50, 54, 91, 39, 19% at 175 days and 77, 87, 100, 85, 75% at

ClC1=C(Cl)C2(Cl)C3C(Cl)C=CC3C1(Cl)C2(Cl)Cl (stereo not given)
outcome (Carcinogen: DIETHYLNITROSAMINE, 55-18-5, Doses [Carcinogen]: 20 PPM IN DRINKING WATER FOR 14 WK, Doses [Promoter]: 0, 5, 10 PPM TECHNICAL GRADE IN DIET BEGINNING 4 WK POST LAST CARCINOGEN DOSE AND CONTINUING FOR 25 WK (STUDY DURATION:, Doses [Promoter]: 0, 5, 10 PPM TECHNICAL GRADE IN DIET BEGINNING 4 WK POST LAST CARCINOGEN DOSE AND CONTINUING FOR 25 WK (STUDY DURATION:, Route [Carcinogen]: ORAL, Route [Promoter]: ORAL, Species: MOUSE, Strain/Sex: B6C3F1/MALE): liver: adenoma or carcinoma

CCCC(C)C1(CC)C(=O)NC(=O)NC1=O (stereo not given)
outcome (Carcinogen: N-NITROSODIETHYLAMINE, 55-18-5, Doses [Carcinogen]: 75 MG/KG BW IN 0.85% SALINE ONCE, Doses [Promoter]: 0, 485 PPM IN DIET FOR DURATION OF STUDY BEGINNING 2 WK POST CARCINOGEN DOSE (STUDY DURATION: 78 WK), Route [Carcinogen]: INTRAPERITONEAL, Route [Promoter]: ORAL, Species: RAT, Strain/Sex: F344/MALE): liver: carcinoma, adenoma

CC(O)CN(C)N=O (stereo not given)
outcome (Carcinogen: 1-NITRO-1,3-DIMETHYLUREA, 13256-32-1, Doses [Carcinogen]: 10 MG/ML IN ETHYL ACETATE/CORN OIL (1:1) 1/WK FOR 2 WK, Doses [Promoter]: 0, 20 MG/L IN DRINKING WATER 5D/WK FOR 40 WK BEGINNING 1/WK POST CARCINOGEN TREATMENT (STUDY DURATION: 43 WK), Route [Carcinogen]: GAVAGE, Route [Promoter]: ORAL, Species: RAT, Strain/Sex: F344/MALE): kidney: nephroblastoma
outcome (Carcinogen: 1-NITROSO-1,3-DIETHYLUREA, 49540-32-1, Doses [Carcinogen]: 12 MG/ML IN ETHYL ACETATE/CORN OIL (1:1) 1/WK FOR 2 WK, Doses [Promoter]: 0, 20 MG/L IN DRINKING WATER 5 D/WK FOR 40 WK BEGINNING 1/WK POST CARCINOGEN TREATMENT (STUDY DURATION: 43 WK), Route [Carcinogen]: GAVAGE, Route [Promoter]: ORAL, Species: RAT, Strain/Sex: F344/MALE): thyroid: adenocarcinoma; lung: adenocarcinoma; kidney: nephroblastoma
outcome (Carcinogen: NITROSOBIS(2-OXOPROPYL)AMINE, 60599-38-4, Doses [Carcinogen]: 12 MG/ML IN ETHYL ACETATE/CORN OIL (1:1) 2/WK FOR 2 WK, Doses [Promoter]: 0, 20 MG/L IN DRINKING WATER 5D/WK FOR 40 WK BEGINNING 1/WK POST CARCINOGEN TREATMENT (STUDY DURATION: 43 WK), Route [Carcinogen]: GAVAGE, Route [Promoter]: ORAL, Species: RAT, Strain/Sex: F344/MALE): kidney: renal cell carcinoma

O=c1[nH]cnc2[nH]ncc12
outcome (Carcinogen: N-(4-(5-NITRO-2-FURYL)-2-THIAZOLYL)FORMAMIDE, Doses [Carcinogen]: DIET, Doses [Promoter]: IN DIET, Route [Carcinogen]: ORAL, Route [Promoter]: ORAL, Species: RAT, Strain/Sex: FEMALE): urinary bladder

CC1=C(/C=C/C(C)=C/C=C/C(C)=C/C(=O)O)C(C)(C)CCC1
outcome (Carcinogen: 7,12-DIMETHYLBENZ[A]ANTHRACENE, 57-97-6, Doses [Carcinogen]: 50 NMOL IN 200 µL ACETONE 2/WK FOR 16 WK, Doses [Promoter]: 0, 0.5, 25 NMOL IN 200 µL ACETONE APPLIED 1 HR PRIOR TO CARCINOGEN DOSES 2/WK FOR 16 WK (STUDY DURATION: 16 WK), Doses [Promoter]: 0, 0.5, 25 NMOL IN 200 µL ACETONE APPLIED 1 HR PRIOR TO CARCINOGEN DOSES 2/WK FOR 16 WK (STUDY DURATION: 16 WK), Route [Carcinogen]: DERMAL, Route [Promoter]: DERMAL, Species: MOUSE, Strain/Sex: CD-1/FEMALE): skin: tumors

S=C=NCCc1ccccc1
outcome (Carcinogen: DIETHYLNITROSAMINE, 55-18-5, N-BUTYL-N-(4-HYDROXYBUTYL)NITROSAMINE, 3817-11-6, Carcinogen: DIETHYLNITROSAMINE, 55-18-5, N-BUTYL-N-(4-HYDROXYBUTYL)NITROSAMINE, 3817-11-6, Doses [Carcinogen]: 200 MG/KG DEN ONCE THEN 0.05% BBN IN DRINKING WATER FOR 4 WK, Doses [Promoter]: 0, 0.1% IN DIET FOR 32 WKS BEGINNING 3 D POST CARCINOGEN TREATMENT (STUDY DURATION:36 WK), Route [Carcinogen]: INTRAPERITONEAL, ORAL, Route [Promoter]: ORAL, Species: RAT, Strain/Sex: F344/MALE): urinary bladder: carcinoma
